Experimental data reported in patent US7678917B2, “Factor Xa inhibitors” (Hoffman-La Roche Inc., priority 2005, dated 2010).

Biological target: T1, human factor Xa (Homo sapiens, UniProt P00742)
T1 construct: purchased Enzyme Research Laboratories
Experiment: chromogenic peptide substrate assay, inhibition of factor Xa
Type: biochemical
Conditions: human factor Xa 3 nM, chromogenic substrate S-2222, pH 7.8, room temperature; apparent Ki from IC50 by Cheng-Prusoff
Procedure: Factor Xa activity was measured spectrophotometrically in microtiter plates in a final volume of 150 μl using the following conditions: Inhibition of human factor Xa (Enzyme Research Laboratories) was tested at an enzyme concentration of 3 nM using the chromogenic substrate S-2222 (Chromogenix AB, Mölndal, Sweden) at […]. The reaction kinetics of the enzyme and the substrate were linear with both time and the enzyme concentration. The inhibitors were dissolved in DMSO and tested at various concentrations up to 100 μM. The inhibitors were diluted using HNPT buffer consisting of HEPES 100 mM, NaCl 140 mM, PEG 6000 0.1% and Tween 80 0.02%, pH 7.8. The cleavage of S-2222 by human factor Xa was followed at 405 nm for 5 minutes at room temperature. The velocity of the reaction was determined by the autoreader from the slope of the linear regression fit to 7 time points (1 minute). The initial velocity for each inhibitor concentration was determined by the slope of at least 4 time points in the linear phase by a linear regression fit […]. Apparent dissociation constants Ki were calculated according to Cheng and Prusoff [Cheng, Y. C.; Prusoff, W. H. Relationship between the inhibition constant (Ki) and the concentration of the inhibitor that causes 50 percent inhibition (IC50) of an enzyme reaction. Biochem. Pharmacol. 1973, 22, 3099-3108.] based on the IC50 and the respective Km, determined previously (Ki=IC50/(1+S/Km)). […] [Lottenberg R, Hall J A, Blinder M, Binder E P, Jackson C M., The action of thrombin on peptide p-nitroanilide substrates. Substrate selectivity and examination of hydrolysis under different reaction conditions. Biochim Biophys Acta. 1983 Feb. 15; 742(3):539-57]. According to Eadie [Eadie G. S. The inhibition of cholinesterase by physostigmine and prostigmine. J. Biol. Chem. 1942, 146, 85-93.], the Km for S-2222 amounted to 613 μM.

T1 sequence (P00742 235-488 limits assumed): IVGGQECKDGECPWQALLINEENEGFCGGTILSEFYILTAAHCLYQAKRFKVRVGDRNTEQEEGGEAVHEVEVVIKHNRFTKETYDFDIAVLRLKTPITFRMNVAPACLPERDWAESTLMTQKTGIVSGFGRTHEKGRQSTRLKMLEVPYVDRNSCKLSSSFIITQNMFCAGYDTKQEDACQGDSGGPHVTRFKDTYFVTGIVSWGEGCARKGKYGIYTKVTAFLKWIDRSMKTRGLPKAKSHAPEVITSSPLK
T1 sequence (P00742 41-179 partner limits assumed): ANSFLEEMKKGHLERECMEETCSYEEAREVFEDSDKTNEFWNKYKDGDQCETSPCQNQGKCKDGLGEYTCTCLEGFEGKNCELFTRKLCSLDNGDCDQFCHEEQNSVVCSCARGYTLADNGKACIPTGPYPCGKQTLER

Compound	Ki
O=C(N[C@H]1C[C@@H](C(=O)Nc2ccc(-n3ccccc3=O)cc2F)C[C@@H]1O)c1ccc(Cl)s1 [Example 1C, 5-chloro-thiophene-2-carboxylic acid {(1S,2S,4R)-4-[2-fluoro-4-(2-oxo-2H-pyridin-1-yl)-phenylcarbamoyl]-2-hydroxy-cyclopentyl}-amide]	0.015 µM
CCO[C@H]1C[C@H](C(=O)Nc2ccc(-n3ccccc3=O)cc2F)C[C@@H]1NC(=O)c1ccc(Cl)s1 [Example 13B, 5-chloro-thiophene-2-carboxylic acid {(1S,2S,4R)-2-ethoxy-4-[2-fluoro-4-(2-oxo-2H-pyridin-1-yl)-phenylcarbamoyl]-cyclopentyl}-amide]	0.006 µM
O=C(NC[C@H]1C[C@H](C(=O)Nc2ccc(-n3ccccc3=O)cc2F)C[C@@H]1O)c1ccc(Cl)s1 (racemic) [Example 15C]	0.03 µM
O=C(N[C@H]1C[C@@H](C(=O)Nc2ccc(-n3ccncc3=O)cc2F)C[C@@H]1O)c1ccc(Cl)s1 [Example 5, 5-chloro-thiophene-2-carboxylic acid {(1S,2S,4R)-4-[2-fluoro-4-(2-oxo-2H-pyrazin-1-yl)-phenylcarbamoyl]-2-hydroxy-cyclopentyl}-amide]	0.018 µM
